From patent US5686495A, “Substituted hydrazinedicarboximidamides and methods of use thereof” (Cambridge NeuroScience, Inc., priority 1995, dated 1997) come the findings set out here.

Counter-ions that a name gives are not always drawn.

One test relates to potassium-stimulated 45Ca uptake of synaptosomes. Nature of the test: Potassium-stimulated 45Ca uptake into synaptosomes. The note with it: 10 μM; potassium-stimulated uptake of calcium into synaptosomes. The format is cell-based, rat. On the procedure:
Several compounds were also tested to determine whether the Ca^2+ dependent and independent components of glutamate release are related to the blockage of ^45 Ca uptake. Calcium uptake is one step in the cascade of events which occur in neuronal cell death from ischemia. See Bassaclough and Leach, Current Patents Ltd., 2-27. The Ca-flux protocol is as follows. Rat brain synaptosomes were prepared according to Hajos, Brain Res. 93:485 (1975). Synaptosomes were suspended in low potassium "LK" buffer (containing 3 mM KCl) at 2 mg/ml. […] After 5 seconds, the ^45 Ca flux was stopped with 0.9 ml quench solution (LK+10 mM EGTA). The solution was filtered under vacuum and the filters washed with 15 ml of quench buffer. The effect of drug is expressed as % inhibition (or block) of control potassium-stimulated ^45 Ca influx. This method is an adaptation of the method disclosed by Nachsen and Blaustein, J. Physiol. 361:251-268 (1985).
As to `N=C(Nc1cccc2nsnc12)NC12CC3CC(CC(C3)C1)C2` [N-(Adamantan-1-yl)-N'-(4,5-benzo-2-thia-1,3-diazol-6-yl)guanidine], the “% Uptake vs. Control” value is 98%. On the same count and under the same terms, then “N-(α-Naphthyl)-N'-(4-phenylpiperidinyl)-guanidine”, with 79%.

Still in this test, the particulars now being: Rattus norvegicus, read-out: % Uptake vs. Control.
As for `CCc1cccc(NC(=NC#N)Nc2cccc3ccccc23)c1` [N-(α-Naphthyl)-N'-(m-ethylphenyl)-N"-cyano-guanidine], the activity at 10 µM is 95%. On the same count and under the same terms, then `N=C(NC1CCc2ccccc21)NC1CCc2ccccc21` (stereo not shown) [N,N'-Bis(indan-1-yl)-guanidine], with 88%; and `N=C(NC1CCCCC1)NN1CCCCC1` [N-(Cyclohexyl)-N'-(1-piperidinyl)-guanidine], with 108%.

Regarding `N=C(NN1CCCc2ccccc21)NN1CCCc2ccccc21` [N,N'-Bis(1,2,3,4-tetrahydro-1-quinolinyl)-guanidine], the activity at 10 µM amounted to 87%. Still for that read-out and setting: the same measure for `N=C(NCC12CC3CC(CC(C3)C1)C2)NCC12CC3CC(CC(C3)C1)C2` [N-N'-Bis(1-Adamantanemethyl)-guanidine]: 111%; for `CCOC(=O)c1cc2cccc(NC(=N)N(C)c3cccc(CC)c3)c2o1` [N-(m-Ethylphenyl)-N'-(2-carboethoxy-7-benzofuranyl)-N-methyl guanidine]: 71%; for `CCc1cccc(N2CCN(c3cccc(CC)c3)C2=N)c1` [N,N'-Bis(m-ethylphenyl)-2-imino-imidazolidine]: 101%.

With `Cc1ccccc1N1CCCCN(c2ccccc2C)C1=N` [N,N'-Bis(o-tolyl)-N,N'-butanyl(bridge)-guanidine], the activity at 10 µM is 119%. On the same count and under the same terms, then `CCc1cccc(N(C)C(=N)Nc2cccc3ccc(=O)oc23)c1` [N-(8-Aminocoumarinyl)-N'-(m-ethylphenyl)-N'-methyl-guanidine], with 151%. The same measure, in the same setting: then `N=C(Nc1cccc2ccccc12)NN1CCCCC1` [N-(α-Naphthyl)-N'-(1-piperidinyl)-guanidine], with 131%.

The same test, now with this note: Rattus norvegicus, read-out: Inhibition of 45Ca Uptake, % Inhibition @ 10 uM (SEM).
`CC(C)(C)c1ccc(NC(=N)Nc2ccc(C(C)(C)C)cc2)cc1` [N,N'-Bis(p-tert.-butylphenyl) guanidine]: the inhibition (commonly the drop in the measured response relative to a control, in per cent) at 10 µM was determined as 47%. `CC(C)c1ccc(NC(=N)Nc2ccc3c4c(cccc24)CC3)cc1` [N-(3- and 5-Acenaphthyl)-N'-(4-isopropylphenyl)-guanidine.HCl]: the inhibition at 10 µM was found to be 68%. The same measure, in the same setting: the same measure for `N=C(Nc1ccc2cccc3c2c1CC3)Nc1ccc2cccc3c2c1CC3` [N,N'-Bis (3-acenaphthyl)guanidine, N,N'-Bis (3-Acenaphthyl)Guanidine Hydrobromide]: 36%; for `N=C(NC1C2CC3CC(C2)CC1C3)NC12CC3CC(CC(C3)C1)C2` (stereo not shown) [N-(Adamantan-1-yl)-N'-(adamantan-2-yl)guanidine]: 49%; for `N=C(Nc1cccc2ccccc12)NC12CC3CC(CC(C3)C1)C2` [N-(Adamantan-1-yl)-N' (α-naphthyl)guanidine]: 31%. Same read-out and setting: the same measure for `CC(C)c1ccc(NC(=N)Nc2ccc(C(C)C)cc2)cc1` [N,N'-Di-(4-isopropylphenyl)guanidine]: 48%; for `N=C(Nc1ccc2c3c(cccc13)CC2)NC12CC3CC(CC(C3)C1)C2` [N-(5-acenaphthyl)-N'-(adamant-1-yl)guanidine]: 47 ± 11%. On the same count and under the same terms, the same measure for `N=C(Nc1cccc2ccccc12)Nc1ccc2c3c(cccc13)CC2` [N-(5-acenaphthyl)-N'-(1-naphthyl)guanidine]: 40 ± 6%.

The test is the same for the next values; noted with them: Rattus norvegicus, read-out: Inhibition of 45Ca Uptake, IC50.
As for `N=C(Nc1ccc2cccc3c2c1CC3)Nc1ccc2cccc3c2c1CC3` [N,N'-Bis (3-acenaphthyl)guanidine, N,N'-Bis (3-Acenaphthyl)Guanidine Hydrobromide], the concentration for half-maximal inhibition (IC50) (in general, the concentration that gives 50% inhibition) came out at 11 µM.

Staying with this test, now noted: Rattus norvegicus; read-out: Inhibition of 45Ca Uptake, IC50.
As for `CC(C)c1ccc(NC(=N)Nc2ccc3c4c(cccc24)CC3)cc1` [N-(3- and 5-Acenaphthyl)-N'-(4-isopropylphenyl)-guanidine.HCl], the half-inhibitory concentration (IC50) was found to be 6.5 ± 1 µM.

In the case of `CC(C)c1ccc(NC(=N)Nc2ccc(C(C)C)cc2)cc1` [N,N'-Di-(4-isopropylphenyl)guanidine], the IC50 came out at 19 ± 7 µM. On the same count and under the same terms, then `N=C(Nc1ccc2c3c(cccc13)CC2)NC12CC3CC(CC(C3)C1)C2` [N-(5-acenaphthyl)-N'-(adamant-1-yl)guanidine], with 9.7 ± 3 µM. On the same count and under the same terms, then `N=C(Nc1cccc2ccccc12)Nc1ccc2c3c(cccc13)CC2` [N-(5-acenaphthyl)-N'-(1-naphthyl)guanidine], with 16.2 ± 0.4 µM.

The test system of a further test is 3H-glutamate release from rat brain synaptosomes. Nature of the test: Inhibition of K+-evoked 3H-glutamate release from synaptosomes (rapid superfusion). The format is cell-based. The note with it: Rattus norvegicus, read-out: relative level of glutamate release. On the procedure:
To study the release of presynaptic ^3 H-glutamate, synaptosomes from young rats were used. CD Male rats of 4 to 6 weeks (50-75 g) were used for the preparation of synaptosomes. Rats were killed by decapitation with guillotine and the skull bone was opened in the center with the pointed blade of dissection scissors. The bone is then peeled away with a bone cutter and the brain is pried with a micro spatula. The cerebellum is removed and the rest of the brain is placed in 35 ml of 0.32M Sucrose solution and homogenized in a Thomas glass teflon homogenizer C at the maximum power setting (about 450 rpm) with 16 strokes. The pestle is rinsed with 5 ml of sucrose solution and added to the homogenate. The homogenate is centrifuged for 10 min at 3500 rpm (1500 g) in a SS-34 rotor in Sorvall RC-5B. The resulting pellet (P1) is discarded and the supernatant (S1) is recentrifuged for 20 min at 8700 rpm (8500 g). The supernatant (S2) is discarded and the pellet (P2) is resuspended in 5 ml of 0.32M sucrose and hand homogenized with 4 strokes (Thomas C) and the volume was made up to 8 ml. This homogenate was layered on 20 ml of 0.8M sucrose solution in two centrifuge tubes and spun for 25 minutes at 8700 rpm (8500 g). At the end of this spin, most of the myelin stays at the interphase of 0.32M and 0.8M sucrose and mitochondria pellet as a brown pellet. The synaptosomes are dispersed in the 0.8M sucrose. Using a 10 ml pipette, the 0.8M sucrose layer is collected (without disturbing the top myelin layer or the pellet) and diluted slowly with an equal volume of chilled basal buffer, while stirring gently with a Pasteur pipette. This diluted solution is centrifuged for 10 min at 10,000 rpm (12,000 g) and the pellet is resuspended in 1.5 ml of basal buffer and hand-homogenized in a Wheaton glass-glass 7 ml homogenizer with 8 strokes.
The synaptosomal homogenate is diluted 1 ml to 10 ml with basal buffer. This dilution gives a protein concentration of 500 to 600 μg/ml. One hundred μl of this diluted prep with 50-60 μg of protein is used for each superfusion event. […] The diluted synaptosomal solution was kept on ice until the end of the experiment.
^3 H-glutamate (purchased from NEN) is stored in the refrigerator. Pipette 6 μl ([…]; 40 to 55 Ci/mmol) into a disposable test tube. Add 100 μl of diluted prep and mix gently on vortex and incubate at 30° C. for 10 min. ^3 H-glutamate is taken up by sodium-coupledglutamate transporter present in synaptosomal membranes. After 10 min, dilute the incubation mixture with 690 μl of basal buffer. This solution is then transferred in Tygon tubing that is connected to the synaptosome loading chamber. Using a syringe filler with air, the solution is forced through the Millipore SC--GF/F--Millipore SC filter sandwich. These filters retain the synaptosomes and the solution flows through.
An important component of the superfusion setup is the custom made stainless steel "General Valve" three-valve solenoid operated superfusion chamber with an outlet for the effluent. The three inlets are connected to stainless steel buffer reservoirs that contain (1) wash buffer, (2) control buffer and (3) experimental buffer which are kept under 40 psi of nitrogen gas through teflon tubing connections. The superfusion is controlled through a menu-driven program on an Apple IIe computer. See Turner, J. T. et al., Anal. Biochem. 178:8-16 (1989), and U.S. Pat. No. 4,891,185, the disclosures of which are fully incorporated by reference herein.
The superfusion chamber has a teflon bushing and a stainless steel washer fixed with the flat surface facing the filters. A GF/B filter disc is placed first in the chamber to eliminate the switching related artifacts. The synaptosome loaded sandwich is then placed facing the synaptosomes into the flow followed by RA filter, stainless steel screen and a washer with the flat side facing the screen.
Turning to `N=C(Nc1ccccc1I)N[C@H]1C[C@H]2CC[C@@H]1C2` (relative stereo) [N-((±)-endo-2-norbornyl)-N' (2-iodophenyl)guanidine], the activity at 30 µM worked out at 77%.

For the molecule `Cc1ccccc1NC(=N)NC12CC3CC(CC(C3)C1)C2` [N-(adamantan-1-yl)-N'-(2-methylphenyl)guanidine], the activity at 30 µM stood at 52% and the activity at 100 µM was 45%.

As for `CCc1cccc(NC(=N)N(C)c2cccc(CC)c2)c1` [N,N'-di-(3-ethylphenyl)-N-methylguanidine], the activity at 30 µM worked out at 88%.

On to `N=C(Nc1ccccc1I)NC1C2CC3CC(C2)CC1C3` (stereo not shown) [N-(adamantan-2-yl)-N'-(2-iodophenyl)guanidine], for which the activity at 30 µM turned out to be 74%. The same measure, in the same setting: the same measure for `Cc1ccccc1NC(=N)NC1CCCCC1` [N-cyclohexyl-N'-(2-methylphenyl)guanidine]: 100%; for `CC(C)c1ccccc1NC(=N)N(C)c1cccc2ccccc12` [N-(1-naphthyl)-N-methyl-N'-(o-isopropylphenyl)guanidine]: 95%; for `Cc1ccccc1NC(=N)NC1C2CC3CC(C2)CC1C3` (stereo not shown) [N-(adamantan-2-yl)-N'-(2-methylphenyl)guanidine]: 100%. Same read-out and setting: the same measure for `CC(C)c1ccccc1NC(=N)Nc1cccc2ccccc12` [N-(1-naphthyl)-N'-(o-isopropylphenyl)guanidine]: 100%. In the case of `Cc1ccccc1NC(=N)Nc1ccccc1C` [N,N'-di-(o-tolyl)guanidine], the activity at 100 µM stood at 91%. Same read-out and setting: the same measure for `N=C(Nc1ccccc1I)Nc1ccccc1I` [N,N'-di-(2-iodophenyl)guanidine]: 61%.

Take `CCc1cccc(NC(=N)Nc2cccc3ccccc23)c1` [N-(3-ethylphenyl)-N'-(1-naphthyl)guanidine]: the activity at 30 µM is 59%. Same read-out and setting: then `Cc1ccccc1CNCc1ccccc1C` [Di-(o-methyl)benzyl)amine], with 100%. Same read-out and setting: then `N=C(Nc1ccccc1I)NC12CC3CC(CC(C3)C1)C2` [N-(adamantan-1-yl)-N'-(2-iodophenyl)guanidine], with 39%; and `N=C(NC1CCCCC1)NC12CC3CC(CC(C3)C1)C2` [N-(adamantan-1-yl)-N'-cyclohexylguanidine], with 120%. Same read-out and setting: then `N=C(Nc1ccccc1I)Nc1cccc2ccccc12` [N-(α-naphthyl)-N'-(2-iodophenyl)guanidine], with 77%.

Still in this test, the particulars now being: Rattus norvegicus; 30 μM; Control = 100; K+ depolarization; read-out: relative level of glutamate release.
Take `CCc1cccc(N(C)C(=N)Nc2cccc3ccccc23)c1` [N-(1-naphthyl)-N'-(m-ethylphenyl)-N'-methylguanidine]: the activity at 30 µM was found to be 76%.

The same test, now with this note: Rattus norvegicus; 100 μM; Control = 100; K+ depolarization; read-out: relative level of glutamate release.
Regarding `CCc1cccc(N(C)C(=N)Nc2cccc3ccccc23)c1` [N-(1-naphthyl)-N'-(m-ethylphenyl)-N'-methylguanidine], the activity at 100 µM turned out to be 21%.
